Test results taken from patent US4804660A, “Ergot cyclic peptide alkaloids having a venotonizing effect, useful for treating orthostatic hypotension” (Sandoz Ltd., priority 1981, dated 1989).

How the values were obtained:
rat = test: apomorphine stereotypy test / stereotypy in the rat; format: in vivo; details: 30 mg/kg i.p.
Method: The compounds moreover induce stereotypy in the rat at a dose of about 30 mg/kg i.p.
and has a score. in the apomorphine stereotypy test of 15.7 at 30 mg/kg i.p .

rat brain = test: carbon-14-2-deoxyglucose autoradiographic technique, local cerebral glucose utilisation; format: in vivo; details: 3 mg/kg i.p.
Method: Moreover the compounds increase the local cerebral glucose utilisation in the sensomotor cartex, e.g. Hippocampus, Nucleus habenula, Nucleus corpus gentcul . As indicated by the carbon-14-2-deoxyglucose autoradiographic technique with the rat brain on administration i.p. of from about 0.3 to about 30 mg/kg of the compounds [for method see e.g. L. Solokoff, Journal of Cerebral Blood Flow and Metabolism, 1981, (1), 7-36, H. E. Savaki et al. Brain Research 1982, 233, 347 and J. McCulloch et al. Journal of Cerebral Blood Flow and Metabolism 1981, 1, 133-136.

Question: With “2-methyl-9,10-dihydro-9'-thia-α-ergocryptine” as the substance, how does the “score in the apomorphine stereotypy test” value (rat) read?
Answer: 15.7

Question: And the “increase in local cerebral glucose utilisation, Hippocampus” value (rat brain; Hippocampus)?
Answer: +2%

Question: What about the “increase in local cerebral glucose utilisation, Nucleus dors.corpus genicul.lat” value (rat brain; Nucleus dors.corpus genicul.lat) of the same substance?
Answer: +25%

Question: And the “increase in local cerebral glucose utilisation, Nucleus lateralis huberula” value (rat brain; Nucleus lateralis huberula)?
Answer: +22%
